Measured values from patent publication US20070167492A1, “Molluscicidal agents” (priority 2003, published 2007).

Legend:
[1] = Example 1: pot test, treated winter wheat seed with 5 adult slugs per pot, 14 days; type: in vivo, Deroceras reticulatum; conditions: Example 1; winter wheat seed treatment
Outline: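 Fludioxonil-disinfected winter wheat seed (Kampa, 40 per pot) sown on quartz sand over potting soil with 5 adult slugs per pot; ±15° C., ±90% RH, 12 h light/12 h dark, 4 replicates. Damaged seeds, plants, dead slugs and fecal pellets counted up to day 14; F-tests and Student-tests.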

[2] = test system: Winter wheat (Kampa race) seeds; experiment: Seed germination test of treated winter wheat seeds (rolled in paper); type: in vivo; conditions: 3x50 seeds, 6 days at 22° C.
Outline: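 Seeds were disinfected with fludioxonil-containing Beret Gold (2 ml per kg seed) and coated with Sepiret® for formulations unsuitable for coating. Germination of 3×50 seeds rolled in paper was scored after 6 days at continuous 22° C. under a 16 hours light regime.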

O=CC=Cc1ccccc1 [cinnamaldehyde]
phytotoxicity [1]: phytotoxic
Percentage germinated ([2]; 2 ml formulated per kg seed): 25%
Percentage germinated ([2]; 4 ml formulated per kg seed): 0%
Percentage germinated ([2]; 10 ml formulated per kg seed): 0%

O=[N+]([O-])NC1=NCCN1Cc1ccc(Cl)nc1 [imidacloprid]
Percentage germinated ([2]; 2 ml formulated per kg seed): 78%
Percentage germinated ([2]; 4 ml formulated per kg seed): 89%
Percentage germinated ([2]; 8 ml formulated per kg seed): 71%
Percentage germinated ([2]; 12 ml formulated per kg seed): 77%

CC1OC(C)OC(C)OC(C)O1 (stereo not drawn) [metaldehyde]
Percentage germinated ([2]; 3.8 ml formulated per kg seed): 56%
Percentage germinated ([2]; 7.5 ml formulated per kg seed): 31%
Percentage germinated ([2]; 11 ml formulated per kg seed): 48%
Percentage germinated ([2]; 15 ml formulated per kg seed): 8%
